Results taken from patent US7115642B2, “Substituted diphenyl isoxazoles, pyrazoles and oxadiazoles useful for treating HCV infection” (priority 2003, dated 2006).

These compounds were tested on HCV replicon (5-2 Luc replicon-comprising cells) (assay: HCV replicon assay (luciferase)). Conditions: 5-2 Luc replicon cells, luciferase readout; read-out: Replicon IC50.
Type: cell-based, Hepatitis C virus
Description: In one embodiment, the inhibitory activity of the compounds can be confirmed in a replicon assay that assesses the ability of a test compound to block or inhibit HCV replication in replicon cells. One example of a suitable replicon assay is the liver cell-line Huh 7-based replicon assay described in Lohmann et al., 1999, Science 285:110–113. A specific example of this replicon assay which utilizes luciferase translation is provided in the Examples Section. In one embodiment of this assay, the amount of test compound that yields a 50% reduction in translation as compared to a control cell (IC50) may be determined.
The inhibitory activity of certain exemplary compounds of the invention was confirmed using an HCV replicon assay. The HCV replicon can include such features as the HCV 5′ untranslated region including the HCV IRES, the HCV 3′ untranslated region, selected HCV genes encoding HCV polypeptides, selectable markers, and a reporter gene such as luciferase, GFP, etc. In the assay, actively dividing 5-2 Luc replicon-comprising cells (obtained from Ralf Bartenschlager; see Lohmann et al., 1999, Science 285:110–113) were seeded at a density of between about 5,000 and 7,500 cells/well onto 96 well plates (about 90 μl of cells per well) and incubated at 37° C. and 5% CO2 for 24 hours. Then, the test compound (in a volume of about 10 μl) was added to the wells at various concentrations and the cells were incubated for an additional 24 hours before luciferase assay. Briefly, the Bright-Glo reagent was diluted 1:1 with PBS and 100 μl of diluted reagent was added to each well. After 5 min of incubation at room temperature, luciferin emission was quantified with a luminometer. In this assay, the amount of test compound that yielded a 50% reduction in luciferase activity (IC50) was determined.
In TABLE 1, a value of “+” indicates an IC50 of 10 μM or less in the specified assay; a value of “−” indicates an IC50 of greater than 10 μM in the specified assay.
Work on `O=C(Nc1cccc(-c2cc(-c3c(Cl)cc(OCCCN4CCOCC4)cc3Cl)no2)c1)C(Cl)Cl` [Compound 73, 2,2-Dichloro-N-[3-[3-[2,6-dichloro-4-(N-morpholinopropyleneoxy)phenyl]-5-isoxazolyl]-phenyl]Acetamide] yielded an IC50 of less than 10 µM. In the case of `CC(=O)Nc1cccc(Cl)c1-c1cc(-c2cccc(NC(=O)C(Cl)Cl)c2)on1` [Compound 560], the IC50 is reported as less than 10 µM. `CS(=O)(=O)N1CCCC(Oc2cccc(Cl)c2-c2cc(-c3cccc(NC(=O)C(Cl)Cl)c3)on2)C1` (stereo not drawn) [Compound 586] gave an IC50 of less than 10 µM. `O=C(Nc1cccc(-c2cc(-c3c(Cl)cccc3N3CCOCC3)no2)c1)C(Cl)Cl` [Compound 500] gave an IC50 of less than 10 µM. In the case of `CS(=O)(=O)NC1CCN(c2cccc(Cl)c2-c2cc(-c3cccc(NC(=O)C(Cl)Cl)c3)on2)C1` (stereo not drawn) [Compound 573], the IC50 is reported as less than 10 µM. `CS(=O)(=O)NC1CCN(c2cccc(Cl)c2-c2cc(-c3cccc(NC(=O)C(Cl)Cl)c3)on2)CC1` [Compound 546] showed an IC50 of less than 10 µM. With `O=C(Nc1cccc(-c2cc(-c3c(Cl)cccc3N3CCN(c4ccccn4)CC3)no2)c1)C(Cl)Cl` [Compound 501] the IC50 was less than 10 µM. With `O=C(Nc1cccc(-c2cc(-c3c(Cl)cccc3N3CCC(C(=O)N4CCOCC4)CC3)no2)c1)C(Cl)Cl` [Compound 668] the IC50 was greater than 10 µM. `CS(=O)(=O)c1cccc(F)c1-c1cc(-c2cccc(NC(=O)C(Cl)Cl)c2)on1` [Compound 153, 2,2-Dichloro-N-[3-[3-(2-fluoro-6-methylsulfonyl)phenyl-5-isoxazolyl]phenyl]Acetamide] showed an IC50 greater than 10 µM. Work on `O=C(Nc1cccc(-c2cc(-c3c(Cl)cccc3N3CCN(S(=O)(=O)C(F)(F)F)CC3)no2)c1)C(Cl)Cl` [Compound 567] yielded an IC50 of less than 10 µM. `O=C(Nc1cccc(-c2cc(-c3c(Cl)cccc3N3CCN(c4ccc(Cl)cc4)CC3)no2)c1)C(Cl)Cl` [Compound 619] was tested, and the IC50 was less than 10 µM. `CC(C)(C)OC(=O)N1CCCCC1C(=O)N1CCN(c2cccc(Cl)c2-c2cc(-c3cccc(NC(=O)C(Cl)Cl)c3)on2)CC1` (stereo not drawn) [Compound 656] gave an IC50 of less than 10 µM. For `O=C(Nc1cccc(-c2cc(-c3c(Cl)cccc3N3CCN(C(=O)c4ccccc4)CC3)no2)c1)C(Cl)Cl` [Compound 642], the IC50 was less than 10 µM. For `CC(=O)N1CCN(c2cccc(Cl)c2-c2cc(-c3cccc(NC(=O)C(Cl)Cl)c3)on2)CC1` [Compound 617], the IC50 was less than 10 µM. Compound `O=C(Nc1cccc(-c2cc(-c3c(Cl)cccc3N3CCC(O)CC3)no2)c1)C(Cl)Cl` [Compound 528] has an IC50 of less than 10 µM. `O=C(Nc1cccc(-c2cc(-c3c(Cl)cccc3N3CCN(CCN4CCCCC4)CC3)no2)c1)C(Cl)Cl` [Compound 667] was tested, and the IC50 was less than 10 µM. `O=C(Nc1cccc(-c2cc(-c3c(Cl)cccc3N3CCN(Cc4ccccn4)CC3)no2)c1)C(Cl)Cl` [Compound 526] was tested, and the IC50 was less than 10 µM. With `CC(=O)N1CCC(Oc2cccc(Cl)c2-c2cc(-c3cccc(NC(=O)C(Cl)Cl)c3)on2)C1` (stereo not drawn) [Compound 595] the IC50 was less than 10 µM. Compound `N#Cc1ccccc1-c1cc(-c2cccc(NC(=O)C(Cl)Cl)c2)on1` [Compound 610] has an IC50 of less than 10 µM. `O=C(O)c1cccc(Cl)c1-c1cc(-c2cccc(NC(=O)C(Cl)Cl)c2)on1` [Compound 687] gave an IC50 greater than 10 µM. Compound `O=C(Nc1cccc(-c2cc(-c3c(Cl)cccc3N3CCC(OC(=O)C(Cl)Cl)CC3)no2)c1)C(Cl)Cl` [Compound 527] has an IC50 of less than 10 µM. `O=C(Nc1cccc(-c2cc(-c3c(Cl)cccc3N3CCN(C(=O)c4ccc(-c5ccccc5)cc4)CC3)no2)c1)C(Cl)Cl` [Compound 557] showed an IC50 greater than 10 µM. Work on `O=C(Nc1cccc(-c2cc(-c3c(Cl)cccc3N3CCN(C(=O)c4ccc(F)cc4)CC3)no2)c1)C(Cl)Cl` [Compound 662] yielded an IC50 of less than 10 µM. `O=C(Nc1cccc(-c2cc(-c3c(Cl)cccc3N3CCN(c4ncccc4C(F)(F)F)CC3)no2)c1)C(Cl)Cl` [Compound 538] was tested, and the IC50 was less than 10 µM. Work on `O=C(Nc1cccc(-c2cc(-c3c(Cl)cccc3N3CCN(C(=O)C4CC4)CC3)no2)c1)C(Cl)Cl` [Compound 535] yielded an IC50 of less than 10 µM. Work on `CCN1CCN(c2cccc(Cl)c2-c2cc(-c3cccc(NC(=O)C(Cl)Cl)c3)on2)CC1` [Compound 627] yielded an IC50 of less than 10 µM. In the case of `O=C(Nc1cccc(-c2cc(-c3c(Cl)cccc3N3CCSCC3)no2)c1)C(Cl)Cl` [Compound 616], the IC50 is reported as less than 10 µM. `O=C(Nc1cccc(-c2cc(-c3c(Cl)cccc3N3CCN(C(=O)Cc4ccccc4)CC3)no2)c1)C(Cl)Cl` [Compound 533] gave an IC50 of less than 10 µM. In the case of `COC(=O)C1CC(Oc2cccc(Cl)c2-c2cc(-c3cccc(NC(=O)C(Cl)Cl)c3)on2)CN1C(=O)OC(C)(C)C` (stereo not drawn) [Compound 590], the IC50 is reported as less than 10 µM. `CN1CCN(c2ccccc2-c2cc(-c3cccc(NC(=O)C(Cl)Cl)c3)on2)CC1` [Compound 611] showed an IC50 of less than 10 µM. For `CCNC(=O)N1CCC(Oc2cccc(Cl)c2-c2cc(-c3cccc(NC(=O)C(Cl)Cl)c3)on2)C1` (stereo not drawn) [Compound 597], the IC50 was less than 10 µM. `CC(C)(C)OC(=O)N1CCC(CCOc2cccc(Cl)c2-c2cc(-c3cccc(NC(=O)C(Cl)Cl)c3)on2)CC1` [Compound 639] was tested, and the IC50 was less than 10 µM. Compound `CC(C)N1CCN(c2cccc(Cl)c2-c2cc(-c3cccc(NC(=O)C(Cl)Cl)c3)on2)CC1` [Compound 632] has an IC50 of less than 10 µM. In the case of `O=C(Nc1cccc(-c2cc(-c3c(Cl)cccc3OC3CCNC3)no2)c1)C(Cl)Cl` (stereo not drawn) [Compound 593], the IC50 is reported as less than 10 µM. Compound `CCNC(=O)N1CCCC(Oc2cccc(Cl)c2-c2cc(-c3cccc(NC(=O)C(Cl)Cl)c3)on2)C1` (stereo not drawn) [Compound 587] has an IC50 of less than 10 µM. `O=C(NC1CCN(c2cccc(Cl)c2-c2cc(-c3cccc(NC(=O)C(Cl)Cl)c3)on2)C1)c1ccccn1` (stereo not drawn) [Compound 572] gave an IC50 of less than 10 µM. Compound `CC(=O)N1CCC(Oc2cccc(Cl)c2-c2cc(-c3cccc(NC(=O)C(Cl)Cl)c3)on2)CC1` [Compound 577] has an IC50 of less than 10 µM. With `O=C(Nc1cccc(-c2cc(-c3ccccc3N3CCN(c4ccccn4)CC3)no2)c1)C(Cl)Cl` [Compound 614] the IC50 was greater than 10 µM. `O=C(Nc1cccc(-c2cc(-c3c(Cl)cccc3C(=O)N3CCOCC3)no2)c1)C(Cl)Cl` [Compound 683] showed an IC50 of less than 10 µM. For `CN(C(=O)C(Cl)Cl)c1cccc(-c2cc(-c3c(Cl)cccc3Cl)no2)c1` [Compound 57, 2,2-Dichloro-N-[3-[3-(2,6-dichlorophenyl)-5-isoxazolyl]phenyl]-N-methyl Acetamide], the IC50 was less than 10 µM. For `CC(=O)N1CCC(N(C)c2cccc(Cl)c2-c2cc(-c3cccc(NC(=O)C(Cl)Cl)c3)on2)CC1` [Compound 582], the IC50 was less than 10 µM. Work on `O=C(Nc1cccc(-c2cc(-c3c(Cl)cccc3N3CCN(c4cccnc4)CC3)no2)c1)C(Cl)Cl` [Compound 550] yielded an IC50 of less than 10 µM. `O=C(Nc1cccc(-c2cc(-c3c(Cl)cccc3N3CCC(c4ccccc4)CC3)no2)c1)C(Cl)Cl` [Compound 638] showed an IC50 of less than 10 µM. `CC(C)(C)OC(=O)N1CCC(Oc2cccc(Cl)c2-c2cc(-c3cccc(NC(=O)C(Cl)Cl)c3)on2)CC1` [Compound 568] was tested, and the IC50 was less than 10 µM. Work on `CCN(CC)c1cccc(Cl)c1-c1cc(-c2cccc(NC(=O)C(Cl)Cl)c2)on1` [Compound 508] yielded an IC50 of less than 10 µM. `O=C(Nc1cccc(-c2cc(-c3ccccc3-c3ccccc3)no2)c1)C(Cl)Cl` [Compound 123, 2,2-Dichloro-N-[3-[3-(2-phenyl)phenyl-5-isoxazolyl]phenyl]Acetamide] was tested, and the IC50 was less than 10 µM. With `[N-]=[N+]=Nc1cccc(Cl)c1-c1cc(-c2cccc(NC(=O)C(Cl)Cl)c2)on1` [Compound 512] the IC50 was less than 10 µM. Work on `O=C(Nc1cccc(-c2cc(-c3c(Cl)cccc3N3CCC(NCc4ccccn4)CC3)no2)c1)C(Cl)Cl` [Compound 588] yielded an IC50 of less than 10 µM. `O=C(Nc1cccc(-c2cc(-c3c(Cl)cccc3NS(=O)(=O)c3ccc(Cl)cc3)no2)c1)C(Cl)Cl` [Compound 679] showed an IC50 of less than 10 µM. With `O=C(Nc1cccc(-c2cc(-c3c(Cl)cccc3N3CCN(c4ccc(C(F)(F)F)cn4)CC3)no2)c1)C(Cl)Cl` [Compound 536] the IC50 was less than 10 µM. Compound `C[N+](C)(C)CCOc1cccc(Cl)c1-c1cc(-c2cccc(NC(=O)C(Cl)Cl)c2)on1` [Compound 598] has an IC50 of less than 10 µM. `CC(C)(C)OC(=O)N1CCC(Oc2cccc(Cl)c2-c2cc(-c3cccc(NC(=O)C(Cl)Cl)c3)on2)C1` (stereo not drawn) [Compound 592] gave an IC50 of less than 10 µM. In the case of `O=C(Nc1ccccc1)NC1CCN(c2cccc(Cl)c2-c2cc(-c3cccc(NC(=O)C(Cl)Cl)c3)on2)CC1` [Compound 548], the IC50 is reported as less than 10 µM. `NC(=O)C1CCN(c2cccc(Cl)c2-c2cc(-c3cccc(NC(=O)C(Cl)Cl)c3)on2)CC1` [Compound 625] was tested, and the IC50 was less than 10 µM. `O=C(Nc1cccc(-c2cc(-c3c(Cl)cccc3N3CCC(NS(=O)(=O)c4ccccc4)C3)no2)c1)C(Cl)Cl` (stereo not drawn) [Compound 681] was tested, and the IC50 was less than 10 µM. For `N#CC1(c2ccccc2)CCN(c2cccc(Cl)c2-c2cc(-c3cccc(NC(=O)C(Cl)Cl)c3)on2)CC1` [Compound 618], the IC50 was less than 10 µM.

Same assay, conditions: Hepatitis C virus; 5-2 Luc replicon cells, luciferase readout; read-out: Replicon IC50
Compound `CCOC(=O)C1CCN(c2cccc(Cl)c2-c2cc(-c3cccc(NC(=O)C(Cl)Cl)c3)on2)CC1` [Compound 151, 2,2-Dichloro-N-[3-[3-[2-chloro-6-(4-carboethoxypiperidino)phenyl]-5-isoxazolyl]-phenyl]Acetamide] has an IC50 greater than 10 µM.
